Source: paper PMC11005681, “Growth‐Coupled Evolutionary Pressure Improving Epimerases for D‐Allulose Biosynthesis Using a Biosensor‐Assisted In Vivo Selection Platform” (Advanced Science, 2024)

How the values were obtained:
[1] = molecular target: T1, ADAE (Agrobacterium sp. SUL3 D-allulose 3-epimerase) (Agrobacterium sp. SUL3, UniProt Z9QCC6USU8); assay: X-ray crystal structure of complex; format: binding; conditions: active site with Mg2+; PDB id not printed in main text
T1 construct: homotetramer; each subunit an (alpha/beta)8 barrel with Mg2+ site
T1 sequence (Z9QCC6USU8 1-284): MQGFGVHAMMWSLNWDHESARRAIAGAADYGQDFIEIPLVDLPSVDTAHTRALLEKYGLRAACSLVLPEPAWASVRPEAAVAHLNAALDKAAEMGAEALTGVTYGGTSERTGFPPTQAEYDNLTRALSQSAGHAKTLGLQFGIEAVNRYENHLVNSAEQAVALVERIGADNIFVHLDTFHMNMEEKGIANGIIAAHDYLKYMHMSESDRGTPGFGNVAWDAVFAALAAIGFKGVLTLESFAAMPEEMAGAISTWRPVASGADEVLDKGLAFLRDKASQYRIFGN

[2] = molecular target: Agrobacterium sp. SUL3 D-allulose 3-epimerase (Agrobacterium sp. SUL3); assay: crystal structure; X-ray crystal structures of ADAE alone and in complex with D-fructose or D-allulose; oligomer seen in the structure

Compound	X-ray crystal structure of complex [1]	stoichiometry N [2]
O=C(CO)[C@H](O)[C@H](O)[C@H](O)CO [D-allulose]	X-ray crystal structures of ADAE alone and in complex with different ligands, including D‐fructose and D‐allulose	–
OCC1(O)OC[C@@H](O)[C@@H](O)[C@@H]1O (stereo partly drawn) [D-fructose]	X-ray crystal structures of ADAE alone and in complex with different ligands, including D‐fructose and D‐allulose	–
Agrobacterium sp. SUL3 D-allulose 3-epimerase (enzyme)	–	4
